The results in this text go back to the METLIN SMRT retention time set (Domingo-Almenara et al. 2019).

A short description of this data set: gradient 5% acetonitrile 3 min, to 50% in 2 min, to 85% in 15 min, held 3 min, 100 µL/min. The note with it: column: Zorbax Extend-C18 2.1 x 50 mm; eluents: water / acetonitrile, 0.1% formic acid. A digest of the protocol:
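Standards, all pure, were combined into mixtures of ~100 molecules and run at 100 μL/min on a Zorbax Extend-C18 column (2.1 × 50 mm, 1.8 μm) with water and acetonitrile, each containing 0.1% formic acid. A coupled quadrupole time-of-flight mass spectrometer operated in positive and negative ionization mode. Retention time values come from computationally picked adduct peaks, each inspected manually.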
Compound `CC1CCCN(C(=O)c2ccc3c(c2)Sc2ncccc2C(=O)N3C(C)C)C1` (stereo not given) registered an RP-LC retention time of 850 s.

`Cn1nccc1-c1cccc(-c2noc(-c3ccc(Br)cc3)n2)c1` returned an RP-LC retention time of 1280 s. The figure for `CCN1CCN(CCNC(=O)c2c(N3CCCC3=O)c3cc(F)ccc3n2CC)CC1` is 614 s; for `Cc1ccc(-c2nc(CN3CCSCC3)c(C)o2)cc1` it is 680 s; for `Cc1cccc(NC(=O)N2CCc3nc(-c4ccc(Cl)cc4)ncc3C2)c1C` it is 660 s. The compound `COc1cccc(NC(=O)NCC(c2cccnc2)c2cn(C)c3ccccc23)c1` (stereo not given) gave an RP-LC retention time of 684 s.

The compound `O=C(NCc1cccc(F)c1)N1C[C@@H]2C[C@H](NS(=O)(=O)c3ccccc3)[C@H]1C2` registered an RP-LC retention time of 782 s. On to `Cc1nc2c(sc3cccc(F)c32)c(=O)n1CC(=O)Nc1ccccc1C(F)(F)F`, for which the RP-LC retention time was 841 s. The figure for `O=[n+]1c2c(n([O-])c3ccccc31)-c1cccc3cccc-2c13` is 767 s. As for `COc1ccc2c(c1)C1(CCN(C(=O)c3cccc(F)c3)C1)C(=O)N2C` (stereo not given), the figure is 782 s. The figure for `CCc1ccc(-c2ccc(=O)n(CCc3nc(-c4ccc(C)cc4)no3)n2)cc1` is 1180 s; for `CCSc1nc2ncc(-c3ccnc(N4CCN(C)CC4)n3)c(C)n2n1` it is 808 s; for `CCc1noc(-c2ccnc(-n3ncc(C(=O)NC4CCCCC4)c3C)c2)n1` it is 1020 s. On to `Cc1nn(-c2ccccc2)c(C)c1S(=O)(=O)N1CCC(C(=O)NC2CC2)CC1`, for which the RP-LC retention time is 744 s.

Consider `O=c1n(Cc2cccc(F)c2)nc2c(S(=O)(=O)N3CCCCC3)cccn12`, for which the RP-LC retention time was determined as 872 s.

`CCCn1nc2n(c1=O)CCN(Cc1cn[nH]c1-c1ccc(C)c(C)c1)C2` showed an RP-LC retention time of 644 s. The figure for `COc1ccc(-n2nc(N3CCCC(C(=O)NCc4cccc(OC)c4)C3)ccc2=O)cc1` (stereo not given) is 763 s; for `Cc1cccc(S(=O)(=O)N2CCC(c3nc(C(=O)N4CCOCC4)c(C)o3)CC2)c1` it is 819 s; for `CCCN(CC1CCOC1)C(=O)Nc1c(C)cccc1C` (stereo not given) it is 791 s. Compound `O=C(Nc1ccc(C(=O)N2CCOCC2)c(N2CCCCCC2)c1)C1CC1` yielded an RP-LC retention time of 743 s. The figure for `O=C1CCCc2cc(S(=O)(=O)N3CCC(C(=O)Nc4cccc(Cl)c4)CC3)ccc2N1` is 826 s; for `Cc1ccc(CNC(=O)c2ccc3ncnc(N4CCCC4)c3c2)o1` it is 617 s. As for `CCn1ccc2sc(C)c(C(=O)NCc3ccc(C)cc3)c2c1=O`, the figure is 850 s. As for `CCOC(=O)c1sc(NC(=O)C2CC(=O)N(c3n[nH]c4ccccc34)C2)nc1C` (stereo not given), the figure is 750 s.

`CCc1nnc(-c2ccc(S(=O)(=O)N3CCCC(C)C3)o2)o1` (stereo not given) had an RP-LC retention time of 906 s. The figure for `c1ccc2c(c1)CCN(Cc1nc(-c3ccc(N4CCCCCC4)nc3)no1)C2` is 816 s; for `CC1(C)CC(=O)C2=C(C1)N(CC1CCCO1)C(=O)C2(NC(=O)c1ccccc1F)C(F)(F)F` (stereo not given) it is 908 s; for `O=S(=O)(c1cccc(-c2nc(-c3ccccc3)no2)c1)N1CCc2ccccc21` it is 1320 s. As for `CCN(Cc1nc2ccccc2n1C)c1ccccc1`, the figure is 593 s; as for `Cc1cc(N2CCN(c3ccccn3)CC2)n2nc(-c3ccccc3)c(C)c2n1`, 614 s.

For `Cn1c(=O)c2c3c(cnc2n(C)c1=O)C(=O)CCC3`, the RP-LC retention time came out at 704 s. The figure for `CNC(=O)Cc1csc(-c2ccc(F)cc2)n1` is 716 s. As for `O=C1NC2(CCN(C(=O)NCc3ccc(F)cc3)CC2)Nc2c(Cl)cccc21`, the figure is 770 s; as for `O=C1CC2(CCN(S(=O)(=O)c3cc(F)ccc3F)CC2)Oc2ccccc21`, 929 s. In turn, `O=S(=O)(c1ccccc1)N1CCCCC1c1nc(-c2ccccc2)n[nH]1` (stereo not given) returned an RP-LC retention time of 851 s. As for `Cc1ccc(-c2coc(-c3cccc(NS(=O)(=O)c4ccc(Br)s4)c3)n2)cc1`, the figure is 1300 s; as for `O=C(CSc1ccc(N2CCCC(C(=O)NC3CC3)C2)nn1)Nc1ccc(F)c(Cl)c1` (stereo not given), 660 s; as for `COc1ccc(N2CC(C(=O)N3CC4CC3C(=O)O4)CC2=O)cc1` (stereo not given), 598 s. The figure for `Cc1ccccc1Cn1c(CN2CCC(C(=O)NC3CCCCCC3)CC2)cc2ccccc21` is 885 s; for `Cc1cc(C(=O)NC(C)C)c2cc(Br)ccc2n1` it is 702 s. As for `COC(=O)c1c(NC(=O)C2COc3ccccc3O2)sc2c1CCN(C(=O)OC)C2` (stereo not given), the figure is 963 s; as for `COc1cccc(N2CCN(C(=O)Cc3csc4nc(-c5ccccc5)cn34)CC2)c1`, 833 s. With `O=C([C@@H]1C[C@H](F)CN1C(=O)Nc1cccc(Br)c1)N1CCCCC1`, the RP-LC retention time was found to be 753 s. As for `CS(=O)(=O)c1nc2ccc(NS(=O)(=O)c3cc(F)cc(F)c3)cc2s1`, the figure is 858 s; as for `CCOc1ccc(Cl)cc1S(=O)(=O)N1CCC(C(=O)NCCCO)CC1`, 688 s; as for `Cn1cnc(S(=O)(=O)N2CCC(C(=O)Nc3cccc(Br)c3)CC2)c1`, 741 s. As for `CCc1c(C2CCN(C(=O)c3ccc(OC)nc3)CC2)noc1N`, the figure is 663 s; as for `CC(C)c1ccc(NC(=O)c2cc3sc(Cl)cc3n2C)cc1`, 1300 s. As for `CCN1CCn2cc(S(=O)(=O)N3CCN(c4cccc(C)c4)CC3)cc2C1=O`, the figure is 858 s; as for `O=C(Cn1c(=O)c(CCC(=O)NC2CCCC2)nc2ccccc21)NCc1ccccc1`, 782 s; as for `Cc1ccc(N(C)C(=O)C2CCCN(c3ncnc4c3nc3n4CCCCC3)C2)cc1C` (stereo not given), 897 s.

`O=C(NCCc1ccccc1)C(=O)NCc1cccnc1` came in with an RP-LC retention time of 567 s. `Cc1ccsc1C(=O)Nc1cccn2c(C3CCC3)nnc12`: the RP-LC retention time turned out to be 805 s. Compound `O=C(O)CC1Sc2ccccc2NC1=O` (stereo not given) had an RP-LC retention time of 607 s. With `Cc1cccc(-c2ncccc2CNS(=O)(=O)c2ccccc2Cl)c1`, the RP-LC retention time was determined as 732 s. As for `CC1CCCN(CC2CCN(S(=O)(=O)Cc3cc(F)cc(F)c3)CC2)C1` (stereo not given), the figure is 666 s. The compound `Cn1cc(CN2CCC(C(=O)N3CCCC3)CC2)c2cc(Cl)ccc21` showed an RP-LC retention time of 631 s. As for `CCc1ccc(S(=O)(=O)N2CCC3(CC2)C(=O)N(CC)c2ccccc23)cc1`, the figure is 1140 s; as for `CCCN(CC1CCOC1)C(=O)Nc1ccc(C)c(Cl)c1` (stereo not given), 959 s. As for `Cc1noc(C)c1CNC(=O)c1ccc2ncccc2c1`, the figure is 753 s.
